Test: mn = molality of the nth substance listed, in mol/kg
Conditions: 100 kPa, Liquid; for viscosity: Capillary tube (Ostwald / Ubbelohde) method; for speed of sound: Frequency=3 MHz, Sing-around technique in a fixed-path interferometer; for mass density: Vibrating tube method

NC(=O)CC[C@H](N)C(=O)O [L-glutamine] + O
Conditions	mass density [kg/m3]	speed of sound [m/s]	viscosity [mPa·s]
293.15 K, m1 = 0.02	999.262	1484	1.012
293.15 K, m1 = 0.04	1000.32	1485.3	1.017
293.15 K, m1 = 0.06	1001.38	1486.9	1.022
293.15 K, m1 = 0.08	1002.44	1488.4	1.027
293.15 K, m1 = 0.1	1003.5	1490.1	1.031
293.15 K, m1 = 0.12	1004.57	1491.8	1.035
293.15 K, m1 = 0.14	1005.63	1493.5	1.039
293.15 K, m1 = 0.16	1006.69	1495.3	1.043
293.15 K, m1 = 0.18	1007.76	1497.2	1.047
293.15 K, m1 = 0.2	1008.82	1499	1.051
298.15 K, m1 = 0.02	998.094	1498	0.8984
298.15 K, m1 = 0.04	999.147	1499.3	0.9028
298.15 K, m1 = 0.06	1000.2	1500.8	0.9067
298.15 K, m1 = 0.08	1001.26	1502.3	0.9104
298.15 K, m1 = 0.1	1002.32	1503.9	0.9143
298.15 K, m1 = 0.12	1003.37	1505.6	0.9175
298.15 K, m1 = 0.14	1004.43	1507.3	0.9212
298.15 K, m1 = 0.16	1005.49	1509	0.9246
298.15 K, m1 = 0.18	1006.56	1510.7	0.9277
298.15 K, m1 = 0.2	1007.62	1512.6	0.9308
303.15 K, m1 = 0.02	996.679	1510.3	0.8039
303.15 K, m1 = 0.04	997.722	1511.6	0.8076
303.15 K, m1 = 0.06	998.771	1513	0.8109
303.15 K, m1 = 0.08	999.819	1514.5	0.8141
303.15 K, m1 = 0.1	1000.87	1516	0.817
303.15 K, m1 = 0.12	1001.92	1517.7	0.82
303.15 K, m1 = 0.14	1002.97	1519.4	0.8224
303.15 K, m1 = 0.16	1004.02	1521	0.8254
303.15 K, m1 = 0.18	1005.09	1522.7	0.8283
303.15 K, m1 = 0.2	1006.14	1524.5	0.8316
308.15 K, m1 = 0.02	995.051	1520.9	0.7243
308.15 K, m1 = 0.04	996.088	1522.2	0.7275
308.15 K, m1 = 0.06	997.129	1523.6	0.7302
308.15 K, m1 = 0.08	998.171	1525	0.7329
308.15 K, m1 = 0.1	999.218	1526.5	0.7352
308.15 K, m1 = 0.12	1000.26	1528.1	0.7379
308.15 K, m1 = 0.14	1001.31	1529.8	0.7405
308.15 K, m1 = 0.16	1002.36	1531.4	0.7425
308.15 K, m1 = 0.18	1003.41	1533.1	0.7448
308.15 K, m1 = 0.2	1004.48	1534.8	0.7469
313.15 K, m1 = 0.02	993.226	1530	0.6569
313.15 K, m1 = 0.04	994.257	1531.3	0.6595
313.15 K, m1 = 0.06	995.294	1532.6	0.6621
313.15 K, m1 = 0.08	996.332	1534	0.6638
313.15 K, m1 = 0.1	997.372	1535.5	0.666
313.15 K, m1 = 0.12	998.413	1537.1	0.6682
313.15 K, m1 = 0.14	999.457	1538.6	0.6702
313.15 K, m1 = 0.16	1000.5	1540.3	0.6716
313.15 K, m1 = 0.18	1001.56	1542	0.674
313.15 K, m1 = 0.2	1002.6	1543.7	0.6759

Reference: the NIST ThermoML archive (doi:10.1021/acs.jced.5b00549)
